Source: patent publication US20200281897A1, “INDAZOLE DERIVATIVES FOR CANCER TREATMENT” (Servicio Andaluz de Salud, priority 2016, published 2020)

How the values were obtained:
[1] = test system: U266, U266-LR7, RPMI and RPMI-LR5; assay: Synergy of WIN-55 with anti-myeloma agents, MTT and combination index; type: cell-based, human
Description: The evaluation of the synergy of the indazole compound WIN-55 with other anti-myeloma agents, such as dexamethasone and melphalan, was done by evaluating cell viability by means of an MTT assay.
Unless otherwise indicated, an experiment representative of at least three independent experiments is shown. For all the statistical analyses, the data was analyzed by means of Student's T-test with the SPSS software with a statistical significance P≤0.05. The means and standard deviations were also determined. The synergy was calculated using R as described in the Calcusyn software; a combination index (CI)<1 indicates synergy, and >1 indicates antagonism.

[2] = test system: RPMI8226; assay: MTT cell viability assay, myeloma cell line RPMI; type: cell-based, human; conditions: RPMI, MTT, 18 hours, doses 0-50 μM; read-out: IC50, cell viability
Description: (§1) In vitro studies were carried out using six different human MM cell lines, U266, RPMI8226, MM1S, MM1R, U266-LR7, and RPMI-LR5. For ex vivo assays, human primary cells from healthy donors and MM patients were used (Table 1). Human MM cell lines U266, RPMI8226, and MM1.S were acquired from ATCC and lines U266-LR7, RPMI-LR5, and MM1.R were kindly provided by Dr. Enrique Ocio (Hospital Universitario de Salamanca, Spain). The primary cells were obtained from bone marrow (BM) aspirates or peripheral blood (PB) samples, and the peripheral blood mononuclear cells (PBMCs) were isolated by Ficoll-Hypaque centrifugation and washed twice in phosphate buffered saline (PBS) containing 1% BSA. Hematopoietic stem cells and B and T lymphocytes were isolated from healthy PB donors by positive immunomagnetic separation using human MACS CD34+, CD19+, and CD3+ microbeads, respectively. MM plasma cells were obtained from the bone marrow (BM) of patients with an infiltration of cells of more than 30% (Table 1). The MM plasma cells were identified using CD138+, and were then distinguished from the other cell populations by flow cytometry using a suitable combination of antibodies: anti-human CD64-FITC, CD34-PE, CD56-APC, CD38-APC-H7, and CD45-Pacific Blue antibodies (BD Biosciences, San Jose, Calif.). All the cell lines were cultured in RPMI-1640 supplemented with 10% fetal bovine serum (FBS) and 1% penicillin/streptomycin, as recommended by the supplier. For human primary cells, the concentration of FBS was up to 20%.
(§2) The MM cell lines and primary cells were exposed to different doses of indazole compounds, and viability was evaluated at 18, 48, and 72 hours. Pretreatments with the ceramide synthesis inhibitor (FB1), pan-caspase (ZVAD-FMK), and CB antagonists (PGN-8, PGN-37, and PGN-70) were performed for 30 minutes, and then the cells were incubated with indazole compound WIN-55 up to 18 hours. Cell viability was determined using the MTT assay Cell Counting Kit-8 (Dojindo, Kumamoto, Japan) according to the manufacturer's instructions.

[3] = test system: hematopoietic stem cells (CD34+); assay: Viability of hematopoietic stem cells from healthy donors (MTT); type: cell-based, human; conditions: 0-50 μM, 18 hours
Description: as §1, with “The MM plasma cells were identified using CD138+, and were then distinguished from the other cell populations by flow cytometry using a suitable combination of antibodies: anti-human CD64-FITC, CD34-PE, CD56-APC, CD38-APC-H7, and CD45-Pacific Blue antibodies (BD Biosciences, San Jose, Calif.). All the cell lines were cultured in RPMI-1640 supplemented with 10% fetal bovine serum (FBS) and 1% penicillin/streptomycin, as recommended by the supplier. For human primary cells, the concentration of FBS was up to 20%.” left out
The MM cell lines and primary cells were exposed to different doses of indazole compounds, and viability was evaluated at 18, 48, and 72 hours. […] Cell viability was determined using the MTT assay Cell Counting Kit-8 (Dojindo, Kumamoto, Japan) according to the manufacturer's instructions.

[4] = test system: RPMI-LR5; assay: MTT cell viability assay, myeloma cell line RPMI-LR5; type: cell-based, human; conditions: RPMI-LRS, MTT, 18 hours, doses 0-50 μM; read-out: IC50, cell viability
Description: as §1, §2

[5] = test system: U266 cells; assay: MM xenograft in NGS mice; type: in vivo
Description: The “NOD/scid/IL-2R gammae null” (NGS) mice were acquired from Charles River (France). The tumor xenografts were induced by the subcutaneous injection of 5×10^6 U266 cells mixed with 100 μl of Matrigel (BD Biosciences) in 8-week old mice. When the tumors became palpable (>0.5 cm), the mice were randomly assigned in the following groups (10 mice per group), which received i.p.: 1) 5 mg/kg WIN-55 every 24 hours, 2) 5 mg/kg WIN-55 every 48 hours, and 3) a vehicle. Two groups were left tumor-free and served as a negative control, receiving treatment every 24 or 48 hours, respectively. The tumor growth was evaluated daily by measuring the two bisecting diameters of the tumor with a digital Vernier gauge or caliper. The volume was calculated using the following formula: volume=length×(width) e2×0.4 mm^3. The animals were sacrificed when the length or width of the tumor reached 2 cm.

[6] = test system: U937; assay: WST-1 cell viability assay, U937; type: cell-based, human; conditions: U937, 18 hours
Description: U937, NB-4, KG-1, and MOLM-13 (DMSZ, Braunschweig, Germany) were cultured in complete RPMI 1640 medium (with 2 mM of L-glutamine, 100 mg of penicillin, 100 μg/ml of streptomycin, and with 10% FBS), supplemented with 10 mM HEPES, 1×NaPuvuvato, and 1× non-essential amino acids.
The cell lines and primary cells were cultured in 96-well plates (5×10e5 cells per well) with the addition of the indicated concentrations of WIN 55,212-2 or PGN cannabinoids in DMSO or with the solvent only in triplicate at 18, 48, and 72 hours. Caspase inhibitor Z-VAD (OMe)-FMK or the CB2 receptor antagonist PGN-8, -37, and -70, together with the cannabinoid WIN-55,212-2, were also added. Cell viability was determined by means of the WST-1 assay [2-(4-iodophenyl)-3-(4-nitrophenyl)-5-(2,4-disulfophenyl)-2H-tetrazolium] according to the manufacturer's instructions (Dojindo Molecular Technologies). Optical densities were measured at 450 nm using a Multiskan™ Go Microplate plate reader (Thermo Fisher Scientific, Waltham, Mass., USA).
Now it will be analyzed whether the exposure to cannabinoids had any effect on the viability of the tumor cells in vitro. […]

## CS(=O)(=O)O.Cc1c(C(=O)c2cccc3ccccc23)c2cccc3c2n1[C@H](CN1CCOCC1)CO3 [WIN-55, (R)-(+)-[2,3-dihydro-5-methyl-3-(4-morpholinomethyl)-pyrrolo[1,2,3]-1,4-benzoxazin-6-yl]-1-naphthalenylmethanone mesylate]
[1]; WIN-55 20 μM (U266, U266-LR7, RPMI-LR5) or 10 μM (RPMI) plus DEX
  combination effect (combination index) with dexamethasone: synergistic effect
[1]; WIN-55 20 μM (U266, U266-LR7, RPMI-LR5) or 10 μM (RPMI) plus MPH
  combination effect (combination index) with melphalan: synergistic effect
[2]
  IC50: 11.7 µM
[3]
  hematopoietic stem cell viability: not affected
[4]
  IC50: 16.1 µM
[5]; 5 mg/kg i.p. every 24 or 48 hours, NGS mice, U266 xenograft
  tumor growth (tumor volume): considerably inhibits tumor growth
[5]; 5 mg/kg i.p. every 24 hours
  first day on which tumor volume differences were statistically significant: 13 days
[5]; 5 mg/kg i.p. every 48 hours
  first day on which tumor volume differences were statistically significant: 16 days
[6]
  % viable cells at 50 μM: 17.2%
  IC50: 16 µM
